Common to all, as to format: cell-based, murine
In test [1] the target is Ba/F3 EGFR Del19/C797S mutants (Homo sapiens, UniProt P00533, C797S, cells depend on it, form not given). The test can be described thus: CellTiter-Glo cell viability, Ba/F3 EGFR Del19/C797S cells. The conditions noted are these: 72 hours, read-out: Ba/F3 EGFR mutant cell (IC50, nM) D/C. An outline of the steps: (§1)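 Ba/F3 cells expressing wild-type or mutant EGFR were seeded at 2500 cells/well and dosed 24 h later with compound at 0–2000 nM (10 points). After 72 h, viability was read by CellTiter-Glo luminescence, and IC50 values came from curve fitting.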
Background: In ATP-based viability assays light output follows the ATP content of the culture.

Test [2] addresses Ba/F3 EGFR Del19/T790M mutants (Homo sapiens, UniProt P00533, T790M, cells depend on it, form not given). The experiment in a line: CellTiter-Glo cell viability, Ba/F3 EGFR Del19/T790M cells. The note with it: 72 hours, read-out: Ba/F3 EGFR mutant cell (IC50, nM) D/T. The procedure, abridged:
as §1

Test [3] concerns the target Ba/F3 EGFR L858R/C797S mutants (Homo sapiens, UniProt P00533, C797S/L858R, cells depend on it). The experiment in a line: CellTiter-Glo cell viability, Ba/F3 EGFR L858R/C797S cells. The note with it: 72 hours, read-out: Ba/F3 EGFR mutant cell (IC50, nM) L/C. The procedure, abridged: as §1
Test [4] has as its target Ba/F3 EGFR L858R/T790M/C797S mutants (Homo sapiens, UniProt P00533, T790M/C797S/L858R, cells depend on it). The test can be described thus: CellTiter-Glo cell viability, Ba/F3 EGFR L858R/T790M/C797S cells. The note with it: 72 hours, read-out: Ba/F3 EGFR mutant cell (IC50, nM) L/T/C. The procedure, abridged:
as §1

Test [5] addresses Ba/F3 EGFR Wild-type (Homo sapiens, UniProt P00533). The test can be described thus: CellTiter-Glo cell viability, Ba/F3 EGFR wild-type cells. The note with it: 72 hours, read-out: Ba/F3 EGFR mutant cell (IC50, nM) WT. The procedure, abridged:
as §1

The target of test [6] is Ba/F3 EGFR Del19/T790M/C797S mutants (Homo sapiens, UniProt P00533, T790M/C797S, cells depend on it, form not given). The experiment in a line: CellTiter-Glo cell viability, Ba/F3 EGFR Del19/T790M/C797S cells. The conditions noted are these: 72 hours, read-out: Ba/F3 EGFR mutant cell (IC50, nM) D/T/C. The procedure, abridged: as §1

Chain of Ba/F3 EGFR Wild-type (P00533 whole entry, change not shown): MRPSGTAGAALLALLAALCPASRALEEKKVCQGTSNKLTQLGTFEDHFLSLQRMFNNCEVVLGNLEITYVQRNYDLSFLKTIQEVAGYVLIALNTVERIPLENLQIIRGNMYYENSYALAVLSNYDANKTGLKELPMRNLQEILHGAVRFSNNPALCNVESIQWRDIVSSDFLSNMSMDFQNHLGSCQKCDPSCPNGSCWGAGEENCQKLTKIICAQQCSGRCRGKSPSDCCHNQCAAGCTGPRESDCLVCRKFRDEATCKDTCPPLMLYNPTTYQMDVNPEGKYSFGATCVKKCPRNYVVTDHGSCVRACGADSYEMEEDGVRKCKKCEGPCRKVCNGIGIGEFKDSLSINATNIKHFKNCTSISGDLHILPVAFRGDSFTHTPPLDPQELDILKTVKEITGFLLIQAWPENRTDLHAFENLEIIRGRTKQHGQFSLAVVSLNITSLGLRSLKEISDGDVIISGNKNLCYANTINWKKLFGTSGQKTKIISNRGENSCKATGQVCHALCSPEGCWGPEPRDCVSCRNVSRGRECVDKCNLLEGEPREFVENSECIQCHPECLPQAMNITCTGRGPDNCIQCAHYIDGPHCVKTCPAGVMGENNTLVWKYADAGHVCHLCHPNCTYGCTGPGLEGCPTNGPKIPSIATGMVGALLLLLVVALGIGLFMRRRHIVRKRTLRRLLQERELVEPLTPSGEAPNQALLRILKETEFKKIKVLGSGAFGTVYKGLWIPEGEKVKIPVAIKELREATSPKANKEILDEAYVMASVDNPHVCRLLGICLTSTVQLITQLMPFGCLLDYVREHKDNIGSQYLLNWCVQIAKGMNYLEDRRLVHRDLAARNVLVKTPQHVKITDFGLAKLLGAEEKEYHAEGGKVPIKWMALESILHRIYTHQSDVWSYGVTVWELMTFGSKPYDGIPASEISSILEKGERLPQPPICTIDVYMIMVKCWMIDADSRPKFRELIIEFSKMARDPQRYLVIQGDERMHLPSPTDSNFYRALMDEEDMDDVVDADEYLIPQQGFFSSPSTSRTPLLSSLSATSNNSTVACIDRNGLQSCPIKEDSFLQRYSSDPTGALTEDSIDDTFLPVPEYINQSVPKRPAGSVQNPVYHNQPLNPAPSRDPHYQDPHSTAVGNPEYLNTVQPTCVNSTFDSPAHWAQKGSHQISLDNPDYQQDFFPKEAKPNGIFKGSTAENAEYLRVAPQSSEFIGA
Chain of Ba/F3 EGFR Del19/C797S mutants (P00533 with tags, fused parts or gaps DEL746-750/C797S, form open): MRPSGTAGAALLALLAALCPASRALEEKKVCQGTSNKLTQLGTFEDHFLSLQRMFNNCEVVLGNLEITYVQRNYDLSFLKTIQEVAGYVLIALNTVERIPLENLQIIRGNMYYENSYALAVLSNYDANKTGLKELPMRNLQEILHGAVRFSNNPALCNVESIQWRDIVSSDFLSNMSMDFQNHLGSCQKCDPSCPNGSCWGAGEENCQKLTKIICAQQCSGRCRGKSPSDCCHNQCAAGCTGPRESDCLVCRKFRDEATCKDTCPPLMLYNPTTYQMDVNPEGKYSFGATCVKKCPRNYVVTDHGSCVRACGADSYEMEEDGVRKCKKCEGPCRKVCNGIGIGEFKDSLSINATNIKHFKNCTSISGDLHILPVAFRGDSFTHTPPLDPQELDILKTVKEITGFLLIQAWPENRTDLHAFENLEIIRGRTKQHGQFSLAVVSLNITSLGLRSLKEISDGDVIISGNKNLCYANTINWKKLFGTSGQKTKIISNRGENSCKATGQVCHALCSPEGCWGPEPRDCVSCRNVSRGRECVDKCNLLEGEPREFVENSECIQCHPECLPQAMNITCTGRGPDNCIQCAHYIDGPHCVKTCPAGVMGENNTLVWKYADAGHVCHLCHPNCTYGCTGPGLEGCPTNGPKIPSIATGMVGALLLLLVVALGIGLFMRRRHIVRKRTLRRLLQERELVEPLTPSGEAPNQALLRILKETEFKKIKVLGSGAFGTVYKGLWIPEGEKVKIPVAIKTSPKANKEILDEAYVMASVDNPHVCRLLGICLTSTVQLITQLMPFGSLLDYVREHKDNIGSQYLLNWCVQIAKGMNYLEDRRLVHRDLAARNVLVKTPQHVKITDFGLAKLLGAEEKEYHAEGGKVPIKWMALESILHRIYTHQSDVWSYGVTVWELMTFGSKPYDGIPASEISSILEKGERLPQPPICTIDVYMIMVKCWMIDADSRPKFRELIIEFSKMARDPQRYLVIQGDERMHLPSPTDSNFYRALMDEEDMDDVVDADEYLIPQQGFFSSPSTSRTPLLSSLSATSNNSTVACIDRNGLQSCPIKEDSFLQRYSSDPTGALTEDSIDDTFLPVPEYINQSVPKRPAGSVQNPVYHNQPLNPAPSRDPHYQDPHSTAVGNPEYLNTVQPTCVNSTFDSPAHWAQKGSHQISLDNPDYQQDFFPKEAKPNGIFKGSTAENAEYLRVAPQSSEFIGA
Chain of Ba/F3 EGFR L858R/T790M/C797S mutants (P00533 whole entry T790M/C797S/L858R): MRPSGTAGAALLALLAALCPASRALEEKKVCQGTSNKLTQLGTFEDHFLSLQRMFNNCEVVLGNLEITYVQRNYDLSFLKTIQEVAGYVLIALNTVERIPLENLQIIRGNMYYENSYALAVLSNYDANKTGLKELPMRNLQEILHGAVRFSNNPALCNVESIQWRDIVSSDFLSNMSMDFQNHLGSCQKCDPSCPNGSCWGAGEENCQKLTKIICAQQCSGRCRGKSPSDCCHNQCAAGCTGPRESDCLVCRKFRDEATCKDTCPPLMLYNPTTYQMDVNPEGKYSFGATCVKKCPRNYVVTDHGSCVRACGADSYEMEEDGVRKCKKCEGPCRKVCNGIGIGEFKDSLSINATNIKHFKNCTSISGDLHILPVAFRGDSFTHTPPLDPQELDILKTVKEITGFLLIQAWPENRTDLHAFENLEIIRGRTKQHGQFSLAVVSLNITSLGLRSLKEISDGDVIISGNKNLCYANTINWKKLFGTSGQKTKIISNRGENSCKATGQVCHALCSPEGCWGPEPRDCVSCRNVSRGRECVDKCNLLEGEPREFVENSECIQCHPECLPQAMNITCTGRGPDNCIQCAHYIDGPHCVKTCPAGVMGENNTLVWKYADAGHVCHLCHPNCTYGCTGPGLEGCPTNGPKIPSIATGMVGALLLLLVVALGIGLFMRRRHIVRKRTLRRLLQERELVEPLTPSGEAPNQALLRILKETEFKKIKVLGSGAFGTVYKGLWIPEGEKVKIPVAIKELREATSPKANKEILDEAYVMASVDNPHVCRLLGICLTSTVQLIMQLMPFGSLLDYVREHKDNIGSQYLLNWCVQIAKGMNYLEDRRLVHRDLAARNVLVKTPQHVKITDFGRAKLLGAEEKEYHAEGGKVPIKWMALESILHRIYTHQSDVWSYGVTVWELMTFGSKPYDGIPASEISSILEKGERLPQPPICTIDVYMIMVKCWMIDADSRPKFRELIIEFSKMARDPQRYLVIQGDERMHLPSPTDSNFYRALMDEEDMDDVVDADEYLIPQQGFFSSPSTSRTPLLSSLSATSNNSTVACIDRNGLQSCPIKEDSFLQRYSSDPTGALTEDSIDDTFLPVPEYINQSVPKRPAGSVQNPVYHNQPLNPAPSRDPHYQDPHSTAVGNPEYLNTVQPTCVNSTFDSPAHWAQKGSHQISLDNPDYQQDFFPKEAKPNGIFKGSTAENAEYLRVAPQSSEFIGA
Chain of Ba/F3 EGFR Del19/T790M mutants (P00533 with tags, fused parts or gaps DEL746-750/T790M, form open): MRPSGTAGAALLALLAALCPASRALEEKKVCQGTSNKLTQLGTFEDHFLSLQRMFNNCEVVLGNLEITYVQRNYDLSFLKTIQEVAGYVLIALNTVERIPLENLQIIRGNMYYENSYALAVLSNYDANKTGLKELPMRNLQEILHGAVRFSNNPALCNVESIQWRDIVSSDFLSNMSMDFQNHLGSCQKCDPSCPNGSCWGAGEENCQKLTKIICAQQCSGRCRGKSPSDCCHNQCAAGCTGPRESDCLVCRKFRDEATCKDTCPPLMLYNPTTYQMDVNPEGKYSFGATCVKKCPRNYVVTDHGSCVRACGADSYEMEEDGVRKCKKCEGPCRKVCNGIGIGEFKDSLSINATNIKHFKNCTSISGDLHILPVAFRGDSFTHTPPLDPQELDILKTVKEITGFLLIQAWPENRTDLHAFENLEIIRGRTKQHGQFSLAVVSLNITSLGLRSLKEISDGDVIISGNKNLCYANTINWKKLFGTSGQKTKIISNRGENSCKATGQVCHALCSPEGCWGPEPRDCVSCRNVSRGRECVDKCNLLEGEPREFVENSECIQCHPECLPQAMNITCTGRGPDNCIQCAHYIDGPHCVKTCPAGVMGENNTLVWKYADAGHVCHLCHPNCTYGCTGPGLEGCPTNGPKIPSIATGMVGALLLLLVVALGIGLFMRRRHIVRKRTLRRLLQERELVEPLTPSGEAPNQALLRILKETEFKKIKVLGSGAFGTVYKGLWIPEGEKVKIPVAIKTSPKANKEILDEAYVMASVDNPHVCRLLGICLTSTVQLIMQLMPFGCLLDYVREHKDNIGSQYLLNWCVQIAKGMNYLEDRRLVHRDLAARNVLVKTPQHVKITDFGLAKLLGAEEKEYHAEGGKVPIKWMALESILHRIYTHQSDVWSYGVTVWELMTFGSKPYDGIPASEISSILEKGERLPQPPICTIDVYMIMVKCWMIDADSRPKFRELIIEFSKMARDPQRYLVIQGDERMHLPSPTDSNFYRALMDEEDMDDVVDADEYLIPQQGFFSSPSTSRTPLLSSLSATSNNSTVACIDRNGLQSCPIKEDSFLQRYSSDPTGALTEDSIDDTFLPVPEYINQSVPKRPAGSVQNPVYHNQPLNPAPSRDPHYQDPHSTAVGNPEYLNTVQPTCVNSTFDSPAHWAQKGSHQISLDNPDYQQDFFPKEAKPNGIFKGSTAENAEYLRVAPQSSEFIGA

Turning to `COc1cc(N2CCNCC2)ccc1Nc1ncc(Cl)c(Nc2ccc3nccnc3c2NS(C)(=O)=O)n1` [Example B16, N-(6-((5-chloro-2-((2-methoxy-4-(piperazin-1-yl)phenyl)amino)pyrimidin-4-yl)amino)quinoxalin-5-yl)methanesulfonamide], the GI50 in test [1] came out at 361 nM; in test [2], 402 nM; in test [3], 778 nM; in test [4], 823 nM; in test [5] it was 1890 nM; in test [6] it was 741 nM.
As to `COc1cc(C2CCNCC2)ccc1Nc1ncc(Br)c(Nc2ccc3nccnc3c2NS(C)(=O)=O)n1` [Example B18, N-(6-((5-bromo-2-((2-methoxy-4-(piperidin-4-yl)phenyl)amino)pyrimidin-4-yl)amino)quinoxalin-5-yl)methanesulfonamide], the GI50 in test [1] was 725 nM; in test [2], 598 nM; in test [3], 1020 nM; in test [4] it was 1440 nM; in test [5], over 2000 nM; in test [6], 818 nM.
Regarding `CCc1cc(Nc2ncc(Br)c(N(C)c3ccc4nccnc4c3N(C)S(C)(=O)=O)n2)c(OC)cc1N1CCC(N(C)C)CC1` [Example B19, N-(6-((5-bromo-2-((4-(4-(dimethylamino)piperidin-1-yl)-5-ethyl-2-methoxyphenyl)amino)pyrimidin-4-yl)(methyl)amino)quinoxalin-5-yl)-N-methylmethane sulfonamide], the GI50 was 36 nM in test [1]; 20 nM in test [2]; 182 nM in test [3]; 82 nM in test [4]; 1410 nM in test [5]; 25 nM in test [6].
As to `COc1cc(C2CCNCC2)ccc1Nc1ncc(C2CC2)c(Nc2ccc3nccnc3c2NS(C)(=O)=O)n1` [Example B20, N-(6-((5-cyclopropyl-2-((2-methoxy-4-(piperidin-4-yl)phenyl)amino)pyrimidin-4-yl)amino)quinoxalin-5-yl)methanesulfonamide], the GI50 in test [1] is 697 nM; in test [2], 1810 nM; in test [3] it was 1140 nM; in test [4], 1850 nM; in test [5], over 2000 nM; in test [6], 758 nM.
For `COc1cc(C2CCNCC2)c(F)cc1Nc1ncc(Cl)c(Nc2ccc3nccnc3c2NS(C)(=O)=O)n1` [Example B21, N-(6-((5-chloro-2-((5-fluoro-2-methoxy-4-(piperidin-4-yl)phenyl)amino)pyrimidin-4-yl)amino)quinoxalin-5-yl)methanesulfonamide], the GI50 in test [1] was found to be 342 nM; in test [2], 469 nM; in test [3], 500 nM; in test [4], 693 nM; in test [5], 1730 nM; in test [6] it was 448 nM.
As for `COc1cc(C2CCN(C)CC2)ccc1Nc1ncc(Cl)c(Nc2ccc3nccnc3c2NS(C)(=O)=O)n1` [Example B23, N-(6-((5-chloro-2-((2-methoxy-4-(1-methylpiperidin-4-yl)phenyl)amino)pyrimidin-4-yl)amino)quinoxalin-5-yl)methanesulfonamide], the GI50 turned out to be 100 nM in test [1]; 154 nM in test [2]; 302 nM in test [3]; 354 nM in test [4]; 868 nM in test [5]; 112 nM in test [6].
Consider `CCCc1cc(Nc2ncc(Br)c(Nc3ccc4nccnc4c3N(C)S(C)(=O)=O)n2)c(OC)cc1N1CCC(N(C)C)CC1` [Example B24, N-(6-((5-bromo-2-((4-(4-(dimethylamino)piperidin-1-yl)-2-methoxy-5-propylphenyl)amino)pyrimidin-4-yl)amino)quinoxalin-5-yl)-N-methylmethanesulfonamide], for which the GI50 turned out to be 17 nM in test [1]; 23 nM in test [2]; 185 nM in test [3]; 65 nM in test [4]; 908 nM in test [5]; 20 nM in test [6].
On to `CCc1cc(Nc2ncc(Cl)c(Nc3ccc4nccnc4c3NS(C)(=O)=O)n2)c(OC)cc1N1CC2CCC1CN2C(C)C` (stereo not drawn) [Example B25, N-(6-((5-chloro-2-((5-ethyl-4-(5-isopropyl-2,5-diazabicyclo[2.2.2]octan-2-yl)-2-methoxyphenyl)amino)pyrimidin-4-yl)amino) 105 quinoxaline-5-yl)methanesulfonamide], for which the GI50 in test [1] was 16 nM; in test [2], 26 nM; in test [3], 93 nM; in test [4], 83 nM; in test [5], 829 nM; in test [6] it was 22 nM.
In the case of `CCc1cc(Nc2ncc(Cl)c(Nc3ccc4nccnc4c3NS(C)(=O)=O)n2)c(OC)cc1N1CC2(C1)CN(C(C)C)C2` [Example B26, N-(6-((5-chloro-2-((5-ethyl-4-(6-isopropyl-2,6-diazaspiro[3.3]heptan-2-yl)-2-methoxyphenyl)amino)pyrimidin-4-yl)amino)quinoxalin-5-yl)methanesulfonamide], the GI50 stood at 42 nM in test [1]; 38 nM in test [2]; 59 nM in test [3]; 61 nM in test [4]; 528 nM in test [5]; 9 nM in test [6].
For the molecule `CCc1cc(Nc2ncc(Cl)c(Nc3ccc4nccnc4c3N(C)S(C)(=O)=O)n2)c(OC)cc1N1CC2(C1)CN(C(C)C)C2` [Example B27, N-(6-((5-chloro-2-((5-ethyl-4-(6-isopropyl-2,6-diazaspiro[3.3]heptan-2-yl)-2-methoxyphenyl)amino)pyrimidin-4-yl)amino)quinoxalin-5-yl)-N-methylmethanesulfonamide], the GI50 is 18 nM in test [1]; 25 nM in test [2]; 35 nM in test [3]; 40 nM in test [4]; 359 nM in test [5]; 5 nM in test [6].
For `CCc1cc(Nc2ncc(Cl)c(Nc3ccc4nccnc4c3N(C)S(C)(=O)=O)n2)c(OC)cc1N1CC2CCC1CN2C(C)C` (stereo not drawn) [Example B28, N—N-(6-((5-chloro-2-((5-ethyl-4-(5-isopropyl-2,5-diazabicyclo[2.2.2]octan-2-yl)-2-methoxyphenyl)amino)pyrimidin-4-yl)amino)quinoxalin-5-yl)-N-methylmethanesulfonamide], the GI50 in test [1] worked out at 14 nM; in test [2] it was 23 nM; in test [3] it was 26 nM; in test [4], 50 nM; in test [5] it was 332 nM; in test [6], 5 nM.
Take `CCc1cc(Nc2ncc(Br)c(Nc3ccc4nccnc4c3N(C)S(C)(=O)=O)n2)c(OC)cc1N1CC2(C1)CN(C(C)C)C2` [Example B29, N-(6-((5-bromo-2-((5-ethyl-4-(6-isopropyl-2,6-diazaspiro[3.3]heptan-2-yl)-2-methoxyphenyl)amino)pyrimidin-4-yl)amino)quinoxalin-5-yl)-N-methylmethanesulfonamide]: the GI50 in test [1] is 14 nM; in test [2], 9 nM; in test [3] it was 27 nM; in test [4], 68 nM; in test [5] it was 317 nM; in test [6], 2 nM.
Take `CCc1cc(Nc2ncc(Br)c(Nc3ccc4nccnc4c3N(C)S(C)(=O)=O)n2)c(OC)cc1N1CC2CCC1CN2C(C)C` (stereo not drawn) [Example B30, N-(6-((5-bromo-2-((5-ethyl-4-(5-isopropyl-2,5-diazabicyclo[2.2.2]octan-2-yl)-2-methoxyphenyl)amino)pyrimidin-4-yl)amino)quinoxalin-5-yl)-N-methylmethanesulfonamide]: the GI50 in test [1] turned out to be 11 nM; in test [2], 7 nM; in test [3] it was 23 nM; in test [4] it was 71 nM; in test [5], 233 nM; in test [6], 2 nM.
With `CCc1cc(Nc2ncc(Br)c(Nc3ccc4nccnc4c3N(C)S(C)(=O)=O)n2)c(OC)cc1N1CC2(CCN2C(C)C)C1` [Example B31, N-(6-((5-bromo-2-((5-ethyl-4-(1-isopropyl-1,6-diazaspiro[3.3]heptan-6-yl)-2-methoxyphenyl)amino)pyrimidin-4-yl)amino)quinoxalin-5-yl)-N-methylmethanesulfonamide], the GI50 stood at 15 nM in test [1]; 8 nM in test [2]; 43 nM in test [3]; 43 nM in test [4]; 482 nM in test [5]; 6 nM in test [6].
Regarding `CCc1cc(Nc2ncc(Br)c(Nc3ccc4nccnc4c3N(C)S(C)(=O)=O)n2)c(OC(C)C)cc1C1CCN(C)CC1` [Example B32, N-(6-((5-bromo-2-((5-ethyl-2-isopropoxy-4-(1-methylpiperidin-4-yl)phenyl)amino)pyrimidin-4-yl)amino)quinoxalin-5-yl)-N-methylmethanesulfonamide], the GI50 is 172 nM in test [1]; 154 nM in test [2]; 200 nM in test [3]; 83 nM in test [4]; 851 nM in test [5]; 29 nM in test [6].

The values are drawn from US12297194B2, “N2-phenylpyrimidine-2,4-diamine compounds, and preparation methods and methods of use thereof” (BRIDGE BIOTHERAPEUTICS, INC., priority 2021, dated 2025).
